Measurements taken from patent US12233161B1, “Lipids and lipid nanoparticle formulations” (LONGUIDE BIOPHARMA CORPORATION, priority 2024, dated 2025).
Each block holds one compound with its values, some of them ahead of it.

Legend:
[1] = Particle size and PDI of nucleic acid lipid nanoparticle preparations by dynamic light scattering; format: physicochemical
Experimental: The 7.5 μL nucleic acid lipid nanoparticle solution (containing approximately 0.04 mg/mL mRNA) was taken and added with 200 μL ultrapure water, mixed by gentle blowing using a pipette tip, and the particle size of the nanopreparation was detected by dynamic lightscattering (DLS) using a Malvern Dynamic Light Scattering Instrument (Malvern Instruments Ltd., ZEN3700, UK).
27.5 μL nucleic acid lipid nanoparticle solution (containing about 0.04 mg/mL mRNA) was taken and added with 200 μL ultrapure water. A pipette tip was used to gently blow the sample and mix well. The particle size of the nanopreparation was detected by Malvern Dynamic Light Scattering Instrument (Malvern Instruments Ltd., ZEN3700, UK). After the detection, the sample was recovered to an EP tube, and 600 μL of ultrapure water was added, gently blown with a pipette tip, and the potential of the nanopreparation was measured by a Malvern particle size meter.

[2] = tested on: mice; assay: In vivo delivery of FLuc-mRNA lipid nanoparticles in mice, in vivo imaging (IVIS)
Method in brief: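 Mice (n=3) received about 75 μL FLuc-mRNA LNP per mouse intramuscularly (rectus femoris), intravenously (tail vein), intraperitoneally or subcutaneously (back). After injection, D-luciferin (200 μL, 15 mg/mL) was given i.p. 10-15 min before IVIS imaging.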

[3] = DMG-PEG2000:DSPC:Chol:Lipid 1.00:11.50:22.50:65.00, N/P 65, mRNA LNP
[4] = DMG-PEG2000:DSPC:Chol:Lipid 1.00:16.00:48.00:35.00, N/P 35, mRNA LNP
[5] = DMG-PEG2000:DSPC:Chol:Lipid 1.00:16.00:63.00:20.00, N/P 35, mRNA LNP
[6] = DMG-PEG2000:DSPC:Chol:Lipid 2.50:11.50:51.00:35.00, N/P 50, mRNA LNP
[7] = DMG-PEG2000:DSPC:Chol:compound 1.00:10.00:33.00:56.00, N/P 42
[8] = DMG-PEG2000:DSPC:Chol:Lipid 1.00:11.50:22.50:65.00, N/P 65, IV, liver
[9] = DMG-PEG2000:DSPC:Chol:Lipid 1.00:11.50:22.50:65.00, N/P 65, IV, lung
[10] = DMG-PEG2000:DSPC:Chol:Lipid 1.00:11.50:22.50:65.00, N/P 65, IV, spleen
[11] = DMG-PEG2000:DSPC:Chol:Lipid 2.50:11.50:51.00:35.00, N/P 50, IV, liver
[12] = DMG-PEG2000:DSPC:Chol:Lipid 2.50:11.50:51.00:35.00, N/P 50, IV, lung
[13] = DMG-PEG2000:DSPC:Chol:Lipid 2.50:11.50:51.00:35.00, N/P 50, IV, spleen
[14] = DMG-PEG2000:DSPC:Chol:Lipid 1.00:8.00:51.00:40.00, N/P 6.7, mRNA LNP
[15] = DMG-PEG2000:DSPC:Chol:Lipid 1.50:8.00:30.50:60.00, N/P 8.3, mRNA LNP
[16] = DMG-PEG2000:DSPC:Chol:Lipid 1.63:12.99:45.38:40.00, N/P 25, mRNA LNP
[17] = DMG-PEG2000:DSPC:Chol:Lipid 1.00:8.00:51.00:40.00, N/P 6.7, IV, liver
[18] = DMG-PEG2000:DSPC:Chol:Lipid 1.00:8.00:51.00:40.00, N/P 6.7, IV, lung
[19] = DMG-PEG2000:DSPC:Chol:Lipid 1.00:8.00:51.00:40.00, N/P 6.7, IV, spleen
[20] = DMG-PEG2000:DSPC:Chol:Lipid 1.50:8.00:30.50:60.00, N/P 8.3, IV, liver
[21] = DMG-PEG2000:DSPC:Chol:Lipid 1.50:8.00:30.50:60.00, N/P 8.3, IV, lung
[22] = DMG-PEG2000:DSPC:Chol:Lipid 1.50:8.00:30.50:60.00, N/P 8.3, IV, spleen
[23] = DMG-PEG2000:DSPC:Chol:Lipid 1.40:11.15:38.95:48.50, N/P 45, mRNA LNP
[24] = DMG-PEG2000:DSPC:Chol:Lipid 1.77:14.07:49.16:35.00, N/P 45, mRNA LNP
[25] = DMG-PEG2000:DSPC:Chol:Lipid 1.40:11.15:38.95:48.50, N/P 60, mRNA LNP
[26] = DMG-PEG2000:DSPC:Chol:Lipid 1.77:14.07:49.16:35.00, N/P 60, mRNA LNP

PDI [1, 3]: 0.10 ± 0.02
Particle size [1, 3]: 87.42 ± 0.32 nm
PDI [1, 4]: 0.11 ± 0.02
Particle size [1, 4]: 115.10 ± 0.87 nm
PDI [1, 5]: 0.11 ± 0.02
Particle size [1, 5]: 135.03 ± 0.67 nm
PDI [1, 6]: 0.12 ± 0.01
Particle size [1, 6]: 122.50 ± 1.15 nm
PDI [1, 7]: 0.08
Particle size (nm) [1, 7]: 101.60 nm
Structure (SMILES): CCCCCCCCCCNC(=O)C(O)CN(CCCN(C)CCCN(CC(O)C(=O)NCCCCCCCCCC)CC(O)C(=O)NCCCCCCCCCC)CC(O)C(=O)NCCCCCCCCCC (centres unmarked) [Compound L0265]
IVIS ([2]; DMG-PEG2000:DSPC:Chol:Lipid 1.00:11.50:22.50:65.00, N/P 65, IV, body): 1.59 × 10^8
% of organ targeting [2, 8]: 0.76%
IVIS [2, 8]: 7.76 × 10^6
% of organ targeting [2, 9]: 97.75%
IVIS [2, 9]: 1.00 × 10^9
% of organ targeting [2, 10]: 1.50%
IVIS [2, 10]: 1.53 × 10^7
IVIS ([2]; DMG-PEG2000:DSPC:Chol:Lipid 1.00:16.00:48.00:35.00, N/P 35, IM, whole body scan): 6.15 × 10^7
IVIS ([2]; DMG-PEG2000:DSPC:Chol:Lipid 1.00:16.00:63.00:20.00, N/P 35, IM, whole body scan): 6.47 × 10^6
IVIS ([2]; DMG-PEG2000:DSPC:Chol:Lipid 2.50:11.50:51.00:35.00, N/P 50, IV, body): 4.45 × 10^7
% of organ targeting [2, 11]: 21.35%
IVIS [2, 11]: 6.87 × 10^6
% of organ targeting [2, 12]: 20.23%
IVIS [2, 12]: 6.51 × 10^6
% of organ targeting [2, 13]: 58.42%
IVIS [2, 13]: 1.88 × 10^7
IVIS ([2]; IV, body, DMG-PEG2000:DSPC:Chol:compound 1.00:10.00:33.00:56.00, N/P 42, Fluc-mRNA): 2.04E+08
% of organ targeting ([2]; IV, liver, DMG-PEG2000:DSPC:Chol:compound 1.00:10.00:33.00:56.00, N/P 42): 0.55%
IVIS ([2]; IV, liver, DMG-PEG2000:DSPC:Chol:compound 1.00:10.00:33.00:56.00, N/P 42, Fluc-mRNA): 2.18E+06
% of organ targeting ([2]; IV, lung, DMG-PEG2000:DSPC:Chol:compound 1.00:10.00:33.00:56.00, N/P 42): 98.43%
IVIS ([2]; IV, lung, DMG-PEG2000:DSPC:Chol:compound 1.00:10.00:33.00:56.00, N/P 42, Fluc-mRNA): 3.94E+08
% of organ targeting ([2]; IV, spleen, DMG-PEG2000:DSPC:Chol:compound 1.00:10.00:33.00:56.00, N/P 42): 1.03%
IVIS ([2]; IV, spleen, DMG-PEG2000:DSPC:Chol:compound 1.00:10.00:33.00:56.00, N/P 42, Fluc-mRNA): 4.11E+06
in vivo delivery efficiency as compared to the benchmark compound SM102 ([2]; certain formulations, Table 2): superior in vivo delivery efficiency
tissue-targeting specificity (lung vs spleen depending on molar percentage of compound) ([2]; certain formulations, Table 2): strong tissue-targeting specificity

PDI [1, 14]: 0.10 ± 0.01
Particle size [1, 14]: 80.47 ± 1.22 nm
PDI [1, 15]: 0.17 ± 0.02
Particle size [1, 15]: 108.70 ± 0.82 nm
PDI [1, 16]: 0.17 ± 0.01
Particle size [1, 16]: 85.98 ± 1.18 nm
Structure (SMILES): CCCCCCCCCCNC(=O)C(O)CN(CCN(C)CCN(CC(O)C(=O)NCCCCCCCCCC)CC(O)C(=O)NCCCCCCCCCC)CC(O)C(=O)NCCCCCCCCCC (centres unmarked) [Compound L0266]
IVIS ([2]; DMG-PEG2000:DSPC:Chol:Lipid 1.00:8.00:51.00:40.00, N/P 6.7, IV, body): 3.13 × 10^7
% of organ targeting [2, 17]: 28.98%
IVIS [2, 17]: 3.13 × 10^6
% of organ targeting [2, 18]: 24.44%
IVIS [2, 18]: 2.64 × 10^6
% of organ targeting [2, 19]: 46.57%
IVIS [2, 19]: 5.03 × 10^6
IVIS ([2]; DMG-PEG2000:DSPC:Chol:Lipid 1.50:8.00:30.50:60.00, N/P 8.3, IV, body): 2.53 × 10^7
% of organ targeting [2, 20]: 3.53%
IVIS [2, 20]: 1.72 × 10^6
% of organ targeting [2, 21]: 89.03%
IVIS [2, 21]: 4.34 × 10^7
% of organ targeting [2, 22]: 7.45%
IVIS [2, 22]: 3.63 × 10^6
IVIS ([2]; DMG-PEG2000:DSPC:Chol:Lipid 1.63:12.99:45.38:40.00, N/P 25, IM, whole body scan): 2.20 × 10^6
tissue-targeting specificity (lung vs spleen depending on molar percentage of compound) ([2]; certain formulations, Table 2): strong tissue-targeting specificity

More lines, now with the values behind:

Structure (SMILES): CCCCCCCCCCCCNC(=O)C(O)CN(CCCN(CC(O)C(=O)NCCCCCCCCCCCC)CC(O)C(=O)NCCCCCCCCCCCC)CCCN(CC(O)C(=O)NCCCCCCCCCCCC)CC(O)C(=O)NCCCCCCCCCCCC (centres unmarked) [Compound L0267]
PDI [1, 23]: 0.16 ± 0.02
Particle size [1, 23]: 148.37 ± 1.40 nm
PDI [1, 24]: 0.14 ± 0.01
Particle size [1, 24]: 121.47 ± 0.72 nm
IVIS ([2]; DMG-PEG2000:DSPC:Chol:Lipid 1.40:11.15:38.95:48.50, N/P 45, IV, whole body scan): 3.89 × 10^5
IVIS ([2]; DMG-PEG2000:DSPC:Chol:Lipid 1.77:14.07:49.16:35.00, N/P 45, IM, whole body scan): 1.05 × 10^6

Structure (SMILES): CCCCCCCCCCNC(=O)C(O)CN(CCCN(CC(O)C(=O)NCCCCCCCCCC)CC(O)C(=O)NCCCCCCCCCC)CCCN(CC(O)C(=O)NCCCCCCCCCC)CC(O)C(=O)NCCCCCCCCCC (centres unmarked) [Compound L0268]
PDI [1, 25]: 0.07 ± 0.01
Particle size [1, 25]: 116.83 ± 1.07 nm
PDI [1, 26]: 0.08 ± 0.01
Particle size [1, 26]: 95.36 ± 0.61 nm
IVIS ([2]; DMG-PEG2000:DSPC:Chol:Lipid 1.40:11.15:38.95:48.50, N/P 60, IV, whole body scan): 3.80 × 10^5
IVIS ([2]; DMG-PEG2000:DSPC:Chol:Lipid 1.77:14.07:49.16:35.00, N/P 60, IM, whole body scan): 5.86 × 10^5

Structure (SMILES): CCCCCCCCCCCCNC(=O)C(CN(CCCN(C)CCCN(CC(OC(=O)CCCCC)C(=O)NCCCCCCCCCCCC)CC(OC(=O)CCCCC)C(=O)NCCCCCCCCCCCC)CC(OC(=O)CCCCC)C(=O)NCCCCCCCCCCCC)OC(=O)CCCCC (centres unmarked) [Compound L0389]
IVIS ([2]; Fluc-mRNA LNP, route IM, organ not given, formulation, molar ratio and N/P as in the table): 1.99E+04
IVIS ([2]; Fluc-mRNA LNP, route IV, organ not given, formulation, molar ratio and N/P as in the table): 2.50E+05
